Test results: PubChem BioAssay (NCI)
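Cultured in 96-well plates, cells were exposed to test compound for 48 hours across five concentrations. TGI marks complete inhibition of growth.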

Legend:
Experiment in all cases: NCI tumour cell line growth inhibition, 48 h
786-0 renal = test system: 786-0 renal
A498 renal = test system: A498 renal
A549 NSCLC = test system: A549 NSCLC
ACHN renal = test system: ACHN renal
BT-549 breast = test system: BT-549 breast
CAKI-1 renal = test system: CAKI-1 renal
COLO 205 colon = test system: COLO 205 colon
DU-145 prostate = test system: DU-145 prostate
EKVX NSCLC = test system: EKVX NSCLC
HCC-2998 colon = test system: HCC-2998 colon
HCT-116 colon = test system: HCT-116 colon
HCT-15 colon = test system: HCT-15 colon
HOP-62 NSCLC = test system: HOP-62 NSCLC
HOP-92 NSCLC = test system: HOP-92 NSCLC
HS 578T breast = test system: HS 578T breast
HT29 colon = test system: HT29 colon
IGROV1 ovarian = test system: IGROV1 ovarian
K-562 leukemia = test system: K-562 leukemia
KM12 colon = test system: KM12 colon
LOX IMVI melanoma = test system: LOX IMVI melanoma
M14 melanoma = test system: M14 melanoma
MALME-3M melanoma = test system: MALME-3M melanoma
MCF7 breast = test system: MCF7 breast
MDA-MB-231 breast = test system: MDA-MB-231 breast
MDA-MB-435 = test system: MDA-MB-435
MDA-N = test system: MDA-N
MOLT-4 leukemia = test system: MOLT-4 leukemia
NCI-H226 lung = test system: NCI-H226 lung
NCI-H23 lung = test system: NCI-H23 lung
NCI-H460 lung = test system: NCI-H460 lung
NCI-H522 lung = test system: NCI-H522 lung
NCI/ADR-RES ovarian = test system: NCI/ADR-RES ovarian
OVCAR-3 ovarian = test system: OVCAR-3 ovarian
OVCAR-4 ovarian = test system: OVCAR-4 ovarian
OVCAR-5 ovarian = test system: OVCAR-5 ovarian
OVCAR-8 ovarian = test system: OVCAR-8 ovarian
PC-3 prostate = test system: PC-3 prostate
RPMI-8226 leukemia = test system: RPMI-8226 leukemia
SF-268 CNS = test system: SF-268 CNS
SF-295 CNS = test system: SF-295 CNS
SF-539 CNS = test system: SF-539 CNS
SK-MEL-2 melanoma = test system: SK-MEL-2 melanoma
SK-MEL-28 melanoma = test system: SK-MEL-28 melanoma
SK-MEL-5 melanoma = test system: SK-MEL-5 melanoma
SK-OV-3 ovarian = test system: SK-OV-3 ovarian
SN12C renal = test system: SN12C renal
SNB-19 CNS = test system: SNB-19 CNS
SNB-75 CNS = test system: SNB-75 CNS
SR leukemia = test system: SR leukemia
SW-620 colon = test system: SW-620 colon
T-47D breast = test system: T-47D breast
TK-10 renal = test system: TK-10 renal
U251 CNS = test system: U251 CNS
UACC-257 melanoma = test system: UACC-257 melanoma
UACC-62 melanoma = test system: UACC-62 melanoma
UO-31 renal = test system: UO-31 renal
CCRF-CEM leukemia = test system: CCRF-CEM leukemia
HL-60(TB) leukemia = test system: HL-60(TB) leukemia
RXF 393 renal = test system: RXF 393 renal

Measured: TGI

CCOC(=O)C1=C(C#N)S(=O)(=O)c2c(oc(C)c2C)N1
not listed: CCRF-CEM leukemia | HL-60(TB) leukemia | RXF 393 renal
> 100 µM: all other assays above

O=C(Nc1ccn(C2CCC(CO)O2)c(=O)n1)c1ccccc1 (stereo unspecified)
not listed: HOP-92 NSCLC | NCI-H460 lung | OVCAR-3 ovarian | OVCAR-4 ovarian
> 100 µM: all other assays above
